From patent US9522124B2, “Methods for treating Alzheimer's disease” (Wisconsin Alumni Research Foundation, priority 2011, dated 2016)

Assays:
[1] = tested on: BACE1; experiment: Western blot of BACE1 in brain tissue homogenates of APP695/swe mice; type: in vivo, mouse; settings: 50 mg/kg/day in diet, 4 months
Experimental: FIG. 16. Compound 9 decreases levels of BACE1 in brain tissue homogenates of APP695/swe transgenic mice. Compound 9 was administered to select transgenic mice for four months, beginning at weaning, with additional transgenic mice used as controls. Brain tissue homogenates were obtained from sacrificed transgenic mice and Western blot assessment of BACE1 in brain tissue homogenates was performed.
A group of non-transgenic and APP695/swe mice were fed a diet containing 50 mg/kg/day of compound 9. Treatment started at weaning (˜6 weeks of age) and lasted 4 months. At the end of treatment, the animals were sacrificed and the electrophysiological properties of hippocampal brain slices (as induced by theta burst stimulation to the Schaffer collaterals) were studied.

[2] = tested on: ATase1 and ATase2; experiment: Western blot assessment of endogenous ATase1/ATase2 levels in H4 cells; type: cell-based, human; settings: 48 hours
Experimental: FIG. 4. Compound 9 causes degradation of the ATases. (A) H4 cells were treated with the indicated compounds (10 μM) for 48 hours prior to Western blot assessment of BACE1 and ATase1/ATase2 levels in total cell lysates. (B, D and E) Quantification of changes are expressed as percent of control (no treatment) and are the average (n=3)±S.D.*, P<0.05; **, P<0.005; ^#, P<0.0005. (C) ELISA determination of secreted Aβ in the conditioned media of the experiment described in (A). Results are expressed as percent of control (no treatment) and are the average (n=3)±S.D.*, P<0.05; **, P<0.005. (F) CHO cells over-expressing either ATase1 or ATase2 were treated with compound 9 (10 μM) for 48 hours prior to Western blot assessment of ATase1 and ATase2 levels in total cell lysates.
FIG. 13. Compound 9 decreases the levels of both ATase1 and ATase2. (A) H4 cells were treated with the increasing concentrations of compound 9 for 48 hours prior to Western blot assessment of BACE1 and ATase1/ATase2 levels in total cell lysates. (B-D) Quantification of changes are expressed as percent of control (no treatment) and are the average (n=3)±S.D.*, P<0.05; **, P<0.005; ^#, P<0.0005.
Western blotting was performed on a 4-12% Bis-Tris SDS-PAGE system (NuPAGE; Invitrogen, Carlsbad, Calif., USA) as described previously (Costantini et al., 2006; Jonas et al., 2008; Jonas et al., 2010; Ko and Puglielli, 2007; Ko and Puglielli, 2009; Pehar et al., 2010). The following antibodies were used in this study: anti-acetylated lysine (monoclonal; cat. no. ab409; Abcam, Cambridge, Mass., USA); anti-BACE1 (polyclonal; cat. no. ab2077; Abcam); anti-Myc (monoclonal; cat. no. sc-40; santa cruz, Santa Cruz, Calif., USA); anti-ATases/NAT8 (polyclonal; cat. no. AP4957c; Abgent, San Diego, Calif., USA); anti-actin (monoclonal; cat. no. A1978; Sigma, St Louis, Mo., USA); anti-C99 (monoclonal; cat. no. M066-3; MBL, Woburn, Mass., USA); anti-acetylated H3 (polyclonal; cat. no. 06-599, Millipore, Billerica, Mass.); anti-acetylated H4 (polyclonal; cat. no. 06-866, Millipore, Billerica, Mass.); anti-αPCNA (polyclonal; cat. no. […]

[3] = target: T1, ATase1 (Homo sapiens, UniProt Q9UHF3); experiment: AcetylCoA:lysine acetyltransferase assay (fluorescent, affinity purified ATase1-myc); type: biochemical
T1 construct: myc (C); made in house
T1 sequence (Q9UHF3 1-227): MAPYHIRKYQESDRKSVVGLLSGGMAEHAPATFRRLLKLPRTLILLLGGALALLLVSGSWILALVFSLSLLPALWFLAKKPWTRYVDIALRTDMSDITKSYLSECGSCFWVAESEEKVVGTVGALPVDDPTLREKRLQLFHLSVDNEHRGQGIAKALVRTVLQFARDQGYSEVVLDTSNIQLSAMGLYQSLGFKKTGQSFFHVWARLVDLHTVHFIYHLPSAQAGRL
Experimental: The acetyl:CoA lysine acetyltransferase activity of ATase1 and ATase2 was assayed as described before (Ko and Puglielli, 2009). Briefly, we adapted a commercially available fluorescent kit (cat. no. 10006515, Cayman Chemicals) as follows: as source of the enzymatic activity, we used affinity purified ATase1-myc and ATase2-myc at the final concentration of 300 ng/μl; as donor of the acetyl group, we used acetyl-CoA at the final concentration of 12.5 μM. […] The acetyltransferase assay was performed as recommended by the manufacturer.
For kinetic analysis of ATase1 and ATase2 inhibition, the assays were performed in the presence of the indicated concentrations of compound 9, 19 and 9.I. The concentration of acetyl-CoA was varied from […]. Values were plotted as a Lineweaver-Burk plot using Graphpad Prism software.
We previously described a fluorescent assay that is able to assess the acetylCoA:lysine acetyltransferase activity of ATase1 and ATase2 in vitro (Ko and Puglielli, 2009). The assay employs affinity purified ATase1 or ATase2 (as enzymes), acetyl-CoA (as donor of the acetyl group) and a recombinant peptide corresponding to the N-terminal tail of the histone protein H3 (as acceptor of the acetyl group). The H3 peptide was preferred to affinity purified BACE1 because it is acetylated in a conformation independent manner ((Ko and Puglielli, 2009) and data not shown) and, therefore, more suitable for large screening approaches. To identify possible ATase1 and ATase2 inhibitors we used the assay to screen a single library of 14,400 small molecules/compounds. The screen identified 186 small molecules/compounds able to inhibit ATase1, ATase2 or both in vitro. […] Each compound was then screened for cytotoxic properties by using multi-plex cytotoxicity assays on a variety of cell lines, including human neuroblastoma and human neuroglioma. […] The above 30 compounds were individually screened on human neuroglioma (H4) cells for their ability to reduce the levels of BACE1 and the generation of Aβ. Two compounds, 9 and 19, produced significant changes and were object of further study.

[4] = tested on: histone acetyltransferase p300/CBP; experiment: In vitro activity of histone acetyltransferase p300/CBP; type: biochemical; settings: data not shown

O=c1c(Cl)c2oc3ccccc3nc-2c2ccccc12 [Compound 9]
BACE1 levels in brain homogenates [1]: marked reduction | endogenous levels of ATase1 and ATase2 ([2]; 10 μM): significantly down-regulate | levels of the ATases with increasing concentrations ([2]; increasing concentrations): dose-dependent decrease | IC50 [3]: ~3.9 µM | kinetics of inhibition for acetyl-CoA, ATase1 ([3]; Lineweaver-Burk plot, acetyl-CoA varied): competitive inhibition | inhibition of in vitro activity of p300/CBP [4]: neither compound inhibited
